Reference: paper PMC6600665, “Identification and Characterization of Approved Drugs and Drug-Like Compounds as Covalent Escherichia coli ClpP Inhibitors” (International Journal of Molecular Sciences, 2019)
“And” between values parts separate entries of the source, which are not always exact repeats. Identical values can stand only once. Peptide text beside a SMILES is read from it.

Experiments:
E. coli ClpP [1] = molecular target: T1, E. coli ClpP (Escherichia coli, UniProt P0A6G7); assay: Fluorescence-based E. coli ClpP proteolytic activity assay (Suc-LY-AMC), primary screen and dose-response; assay type: biochemical; settings: for inhibition at 200 µM: read-out: E. coli ClpP inhibition [%] in the primary screen, primary screen, 200 µM; for Inhibition (%) at 200 μM E. coli ClpP: 200 μM compound concentration; for IC50: read-out: E. coli ClpP IC50
T1 construct: His-tag; made in house; host or cells: E. coli SG1146a
Procedure: Briefly, 25 ng/μL of E. coli ClpP dissolved in a buffer containing 100 mM NaCl, 100 mM 4-(2-hydroxyethyl)-1-piperazineethanesulfonic acid (HEPES) pH 7.5, and 0.05% Brij® 35 were transferred into each well. Test compound addition (final concentration 200 µM) was carried out using an Echo® 550 liquid handling system (Labcyte, Sunnyvale, CA, USA). […] Changes in fluorescence (excitation 350 nm, emission 435 nm) were monitored at 1 min intervals at 30 °C over 1 h using an Infinite M1000 microplate reader (Tecan).
The assay was carried out as described above with increasing concentrations of test compounds. Dose-response experiments were done at least 3 times independently, each in technical triplicates.
Calculation of Z prime (Z’) for HTS assay performance was done according to Zhang et al.. Plates were considered for further analyses if Z’ > 0.6 [26].

E. coli JW0427 (ΔclpP) = assay: Growth delay under nitric oxide stress (DPTA NONOate) in M9 medium, clpP-deficient strain; assay type: cell-based; settings: for Growth delay in presence of nitric oxide stress: clpP-deficient E. coli, DPTA NONOate, compared with cells without compound
Procedure: (§1) Assessment of E. coli growth delay in presence of nitric oxide stress was carried out following our recently published protocol, which is an adaptation of the method reported by Robinson and Brynildsen to a 96-well plate format. Fresh MHB medium was inoculated with isolated colonies of E. coli BW25-113 or E. coli JW0427-1, grown on Luria Agar, and left overnight in a shaking incubator (250 rpm) at 37 °C. On the following day, the overnight culture was used to inoculate fresh M9 medium (supplemented with 10 mM glucose) 1:100, and was grown until OD600 ~0.3. Afterwards, the culture was transferred into 96-well, flat-bottom, sterile clear plates (#167008, Nunc, VWR). Bacterial OD600 was adjusted to 0.1 with M9 medium (supplemented with 10 mM glucose). Test compounds were transferred into the 96-well plates, followed by addition of the bacterial culture. Nitric oxide stress was induced by addition of 2 mM DPTA NONOate ((Z)-1-[N-(3-aminopropyl)-N-(3-ammoniopropyl)amino]diazen-1-ium-1,2-diolate, Cayman Chemical, Ann Arbor, MI, USA), dissolved in NaOH (final concentration 0.14 mM). Absorbance measurements (600 nm) were done with a Multiskan GO or Varioskan LUX plate reader (Thermo Fisher Scientific, Finland) at hourly intervals for 24 h. Between measurements, plates were incubated in a shaking incubator (500 rpm) at 37 °C.

E. coli ClpP [2] = molecular target: T1, E. coli ClpP; assay: Surface plasmon resonance binding to immobilized ClpP; settings: 80 µM, injected over 7 min, 30 min dissociation
Procedure: E. coli ClpP (80 μg/mL) protein was immobilized, using amine coupling (SPR-AS-HCA-03, Bruker Daltonics Inc., Billerica, MA, USA), onto the surface of the sensor chip of a SIERRA SPR-16 instrument (Bruker Daltonics GmbH, Bremen, Germany). ClpP protein was dissolved in acetate at pH 4. The running buffer contained 150 mM NaCl, 10 mM Hepes, 3 mM EDTA, and 0.05% (v/v) Tween-20. The flow rate for protein immobilization was 10 μL/min. Binding experiments were carried out using running buffer with the addition of 0.8% (v/v) of DMSO and 80 µM test substance (flow rate of 20 μL/min for 7 min and up to 30 min of dissociation time). […] SPR data were analyzed using the Analyzer 3 software (Bruker Daltonics GmbH), which includes algorithms for subtracting reference signals and accounting for non-specific interactions between the solvent and the sensor chip surface.

A549 cells = assay: in vitro; assay type: cell-based; settings: for IC50: 48 h incubation, 1:3 dilutions starting from 200 μM, read-out: Cytotoxicity A549 IC50
Procedure: (§2) Potential cell toxicity of the tested compounds was evaluated by ATP quantification using the CellTiter-Glo® luminescent cell viability assay (Promega, Madison, WI, USA). […] After incubation, 20 µL of CellTiter-Glo® reagent were added per well and incubated at room temperature in the dark for another 30 min. Luminescence was quantified by an EnVision multi-plate reader (PerkinElmer, Rodgau, Germany).

HTC-116 cells = assay: in vitro; assay type: cell-based; settings: for IC50: 48 h incubation, 1:3 dilutions starting from 200 μM, read-out: Cytotoxicity HTC-116 IC50
Procedure: as §2

MCF-7 cells = assay: in vitro; assay type: cell-based; settings: for IC50: 48 h incubation, 1:3 dilutions starting from 200 μM, read-out: Cytotoxicity MCF-7 IC50
Procedure: as §2

[3] = system: E. coli BW25-113 (wild type); assay: Growth delay under nitric oxide stress (DPTA NONOate) in M9 medium, wild type; assay type: cell-based; settings: M9 minimal medium
Procedure: as §1

bovine α-chymotrypsin = molecular target: T2, bovine α-chymotrypsin (Bos taurus, UniProt P00766); assay: Serine protease selectivity assay with bovine α-chymotrypsin (Suc-LY-AMC); assay type: biochemical; settings: 200 μM compound concentration
T2 construct: purchased Sigma-Aldrich C4129
Procedure: Compound selectivity was assessed using bovine α-chymotrypsin (#C4129, Sigma-Aldrich, St. Louis, MO, USA) at 200 µM. The assay was carried out as described above, except that 1 ng/μL of α-chymotrypsin and 100 μM of Suc-LY-AMC substrate were dissolved in a buffer containing 150 mM NaCl, 10 mM CaCl2, 50 mM Tris-HCl, and 0.05% Brij® 35.

[4] = dose-response, 1:3 dilution starting from 200 μM, substrate Suc-LY-AMC

T1 sequence (P0A6G7 15-207): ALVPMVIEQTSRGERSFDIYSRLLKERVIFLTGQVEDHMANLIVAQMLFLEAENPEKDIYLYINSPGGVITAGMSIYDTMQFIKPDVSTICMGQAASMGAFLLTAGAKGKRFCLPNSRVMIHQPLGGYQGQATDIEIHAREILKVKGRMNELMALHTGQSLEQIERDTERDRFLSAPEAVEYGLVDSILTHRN

COC(=O)N[C@H](C(=O)N[C@@H](Cc1ccccc1)[C@@H](O)CN(Cc1ccc(-c2ccccn2)cc1)NC(=O)[C@@H](NC(=O)OC)C(C)(C)C)C(C)(C)C [Atazanavir]
inhibition at 200 µM (E. coli ClpP [1]): 85%

N#CC(C#N)=Cc1ccc(O)c(O)c1 [Tyrphostin 23]
inhibition at 200 µM (E. coli ClpP [1]): 79.3%

N.N.O=C([O-])C1(C(=O)[O-])CCC1.[Pt+2] [carboplatin]
E. coli ClpP inhibition [%] in the primary screen (E. coli ClpP [1]; primary screen, 200 µM): 5.4%

N.N.[Cl][Pt][Cl] [Cisplatin, cisplatin]
Growth delay in presence of nitric oxide stress (E. coli JW0427 (ΔclpP)): significantly longer growth delay
Inhibition (%) at 200 μM E. coli ClpP (E. coli ClpP [1]): 96.5%
Inhibition (%) at 200 μM E. coli ClpP, second value (E. coli ClpP [1]; 200 μM, cisplatin was a hit in both screened libraries, second value of the cell): 98.7%
IC50 (E. coli ClpP [1]; [4]): 31 µM
E. coli ClpP inhibition [%] in the primary screen (E. coli ClpP [1]; primary screen, 200 µM): 96.54%
E. coli ClpP inhibition [%] in the primary screen, second library (E. coli ClpP [1]; primary screen, 200 µM, cisplatin present in two libraries (SCREEN-WELL, LOPAC1280), second value): 98.67%
E. coli ClpP inhibition [%] in the primary screen (E. coli ClpP [1]; primary screen, 200 µM, listed as cisplatin): > 90%
SPR signal (resonance units, RU) (E. coli ClpP [2]): high RU values
IC50 (A549 cells): 86.7 µM
IC50 (HTC-116 cells): 913 µM
IC50 (MCF-7 cells): 4.52 µM
Growth arrest in presence of DPTA NONOate ([3]; WT E. coli, 50 μM compound plus DPTA NONOate): ~ 10 h
Bacterial growth in absence of NO• stress ([3]; WT E. coli, 50 μM compound): comparable to the untreated bacteria
Bacterial growth in absence of NO• stress ([3]; WT E. coli, 100 μM compound): affected bacterial growth

O=C(/C=C/c1ccc(O)cc1)CC(=O)/C=C/c1ccc(O)cc1 [Bisdemethoxycurcumin]
inhibition at 200 µM (E. coli ClpP [1]): 76.5%

O=C(O)c1cc(/N=N/c2ccc(S(=O)(=O)Nc3ccccn3)cc2)ccc1O [Sulfasalazine]
inhibition at 200 µM (E. coli ClpP [1]): 77.3%

CO/N=C(\C(=O)N[C@@H]1C(=O)N2C(C(=O)O)=C(CSc3nc(=O)c(=O)[nH]n3C)CS[C@H]12)c1csc(N)n1 [ceftriaxone]
inhibition at 200 µM (E. coli ClpP [1]): -4.6 to 19.3%

O=C(CCC1CCCC1)NCCN1CCOCC1 [3-cyclopentyl-N-[2-(4-morpholinyl)ethyl]propanamide]
E. coli ClpP inhibition [%] in the primary screen (E. coli ClpP [1]; primary screen, 200 µM): 84.44%

N.N.[Cl-].[Cl][Pt+].c1ccncc1 [cDPCP]
Inhibition (%) at 200 μM α-Chymotrypsin (bovine α-chymotrypsin): 84.7%
Growth delay in presence of nitric oxide stress (E. coli JW0427 (ΔclpP)): did not show any significant effect
Inhibition (%) at 200 μM E. coli ClpP (E. coli ClpP [1]): 91.2%
IC50 (E. coli ClpP [1]; [4]): 24.6 µM
E. coli ClpP inhibition [%] in the primary screen (E. coli ClpP [1]; primary screen, 200 µM): 91.16% and > 90%
SPR signal (resonance units, RU) (E. coli ClpP [2]): high RU values
IC50 (A549 cells): 131 µM
Cytotoxicity A549 Ratio (IC50 cytotoxicity/IC50 ClpP) (A549 cells): 5.33
IC50 (HTC-116 cells): 283 µM
IC50 (MCF-7 cells): 3.27 µM
Cytotoxicity MCF-7 Ratio (IC50 cytotoxicity/IC50 ClpP) (MCF-7 cells): 0.13
Bacterial growth in absence of NO• stress ([3]; WT E. coli, 100 μM compound): clearly influenced

CCc1ccc(/C=C2/SC(=S)NC2=O)cc1 [10058-F4]
E. coli ClpP inhibition [%] in the primary screen (E. coli ClpP [1]; primary screen, 200 µM): 72.82%

CC1=C(/C=C/C(C)=C/C=C/C(C)=C/C(=O)Nc2ccc(O)cc2)C(C)(C)CCC1 [Retinoic acid p-hydroxyanilide]
E. coli ClpP inhibition [%] in the primary screen (E. coli ClpP [1]; primary screen, 200 µM): 74.12%

N#CC(C#N)=C(N)/C(C#N)=C/c1cc(O)c(O)c(O)c1 [Tyrphostin 51]
inhibition at 200 µM (E. coli ClpP [1]): 72.8%

CO[C@H]1/C=C/O[C@@]2(C)Oc3c(C)c(O)c4c(O)c(c(/C=N/N5CCN(C6CCCC6)CC5)c(O)c4c3C2=O)NC(=O)/C(C)=C\C=C\[C@H](C)[C@H](O)[C@@H](C)[C@@H](O)[C@@H](C)[C@H](OC(C)=O)[C@@H]1C [Rifapentine]
inhibition at 200 µM (E. coli ClpP [1]): 71.5%

O=c1c(O)c(-c2cc(O)c(O)c(O)c2)oc2cc(O)cc(O)c12 [Myricetin]
inhibition at 200 µM (E. coli ClpP [1]): 76%

O=C(O)CCNC(=O)c1ccc(/N=N/c2ccc(O)c(C(=O)O)c2)cc1 [Balsalazide]
inhibition at 200 µM (E. coli ClpP [1]): 76.5%

CC(=O)Oc1ccccc1C(=O)Nc1ncc([N+](=O)[O-])s1 [Nitazoxanide]
inhibition at 200 µM (E. coli ClpP [1]): 80%

O=C(O)Cn1c(C(=O)Nc2nc(-c3ccccc3Cl)cs2)cc2ccccc21 [SR 27897 hydrate]
E. coli ClpP inhibition [%] in the primary screen (E. coli ClpP [1]; primary screen, 200 µM): 84.71%

CCN(CC)CCNC(=O)c1c(C)[nH]c(/C=C2\C(=O)Nc3ccc(F)cc32)c1C [Sunitinib Malate]
inhibition at 200 µM (E. coli ClpP [1]): 80.7%

NCCCN(CCCN)/[N+]([O-])=N/O [DPTA NONOate, (Z)-1-[N-(3-aminopropyl)-N-(3-ammoniopropyl)amino]diazen-1-ium-1,2-diolate]
Growth arrest by the NO• donor alone (E. coli JW0427 (ΔclpP); ΔclpP E. coli, 2 mM DPTA NONOate, no test compound, M9 minimal medium): ~ 4 h
Growth arrest by the NO• donor alone ([3]; wild-type strain, 2 mM DPTA NONOate, no test compound): ~ 3 h

CCOC(=O)[C@@H](N)CCC(=O)N[C@@H](CSCc1ccccc1)C(=O)N[C@@H](C(=O)OCC)c1ccccc1 [Ezatiostat]
E. coli ClpP inhibition [%] in the primary screen (E. coli ClpP [1]; primary screen, 200 µM): 88.80%

O=C(O)C1CCCCC1C(=O)Nc1ccc(S(=O)(=O)NC2CCCCC2)cc1 (stereo not shown) [2-({4-[(cyclohexylamino)sulfonyl]anilino}carbonyl)cyclohexanecarboxylic acid]
E. coli ClpP inhibition [%] in the primary screen (E. coli ClpP [1]; primary screen, 200 µM): 72.93%

CC(C)C[C@H](NC(=O)OCc1ccccc1)C(=O)N[C@@H](Cc1ccc(O)cc1)C(=O)CCl [Z-LY-CMK, benzyloxycarbonyl-leucyl-tyrosine chloromethyl ketone] (HELM PEPTIDE1{[O=C(OCc1ccccc1)[*:2]].L.Y.[ClC[*:1]]}$$$$V2.0)
Inhibition (%) at 200 μM E. coli ClpP (E. coli ClpP [1]): 98.6%
IC50 (E. coli ClpP [1]; [4]): 14 µM
Covalent / irreversible binding to ClpP by SPR (E. coli ClpP [2]): irreversibly binding
IC50 (A549 cells): 7.15 µM
Cytotoxicity A549 Ratio (IC50 cytotoxicity/IC50 ClpP) (A549 cells): 0.51
IC50 (HTC-116 cells): 3.54 µM
Cytotoxicity HTC-116 Ratio (IC50 cytotoxicity/IC50 ClpP) (HTC-116 cells; HTC-116): 0.25
IC50 (MCF-7 cells): 0.05 µM
Cytotoxicity MCF-7 Ratio (IC50 cytotoxicity/IC50 ClpP) (MCF-7 cells): 0

CO[C@@]1(NC(=O)C2SC(=C(C(N)=O)C(=O)O)S2)C(=O)N2C(C(=O)O)=C(CSc3nnnn3C)CS[C@@H]21 (stereo partly shown) [cefotetan]
inhibition at 200 µM (E. coli ClpP [1]): -4.6 to 19.3%

Cn1c(=O)c2c(ncn2C)n(C)c1=O [caffeine]
Covalent / irreversible binding to ClpP by SPR (E. coli ClpP [2]): did not show any interaction

N=C(N)N/N=C/c1c(Cl)cccc1Cl [guanabenz]
E. coli ClpP IC50 (E. coli ClpP [1]; [4]): did not confirm as ClpP inhibitor
E. coli ClpP inhibition [%] in the primary screen (E. coli ClpP [1]; primary screen, 200 µM): > 90%
inhibition at 200 µM (E. coli ClpP [1]): 100%

C[n+]1ccccc1CC(=O)c1ccc(Br)cc1.[I-] [S 24795]
E. coli ClpP inhibition [%] in the primary screen (E. coli ClpP [1]; primary screen, 200 µM): 76.27%
